The values below come from ChEMBL document CHEMBL1201862, “PubChem BioAssay data set” (2004).

Each structure is given as a SMILES string.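 Growth conditions: 96-well plates. Treatment: test compound, 48 hours, 5 concentrations. Analysis: linear interpolation between bracketing concentrations; unreached endpoints set to highest concentration. GI50 is the concentration that inhibits growth by half.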 Active and inactive are the calls of the source. Rule as the data show it: active = GI50 up to about 1.1 µM and inactive = higher. Some results are limits rather than exact numbers.

Some test systems named below: COLO 205; EKVX; HOP-92; HT-29; LOX IMVI; MCF7; MDA-MB-231; NCI-H226; NCI-H23; NCI/ADR-RES; PC-3; RXF 393; SF-539; SK-MEL-28; SK-OV-3; SNB-19; SW-620; T47D; U-251; UACC-257.
Holding throughout (assay): DTP human tumour cell line panel, 48 h

Turning to `Cn1c2c(c3c(=O)[nH]ncc31)CCc1ccccc1-2`, the GI50 in the test on COLO 205 is 30 µM (inactive); in the test on EKVX, 12.9 µM (inactive); in the test on HOP-92, 44.8 µM (inactive); in the test on HT-29 it was 32.6 µM (inactive); in the test on LOX IMVI, 17.6 µM (inactive); in the test with MCF7, 21.6 µM (inactive). Moreover, the GI50 with MDA-MB-231 is 21.1 µM (inactive); with NCI-H226 it was 29.4 µM (inactive); with NCI-H23, 26.1 µM (inactive); in the test with NCI/ADR-RES it was 27.4 µM (inactive); in the test with PC-3 it was 28.2 µM (inactive); with RXF 393, 18.8 µM (inactive). Further, the GI50 in the test on SF-539 is 46.5 µM (inactive); in the test on SK-MEL-28, 26.7 µM (inactive); in the test with SK-OV-3, 61.1 µM (inactive); with SNB-19 it was 45.8 µM (inactive); in the test on SW-620, 34.1 µM (inactive); with T47D, 28.6 µM (inactive). The GI50 in the test with U-251 is 33.5 µM (inactive); in the test with UACC-257, 17.9 µM (inactive).
For `O=c1cc(-c2ccccc2)[nH]c2ccc(S)cc12`, the GI50 is 38.3 µM (inactive) in the test with COLO 205; 35.8 µM (inactive) in the test with HOP-92; 29 µM (inactive) in the test with HT-29; 24.2 µM (inactive) in the test with MCF7; 65.2 µM (inactive) in the test with MDA-MB-231; 16.1 µM (inactive) with NCI-H226. In addition, the GI50 in the test with NCI-H23 is 33.9 µM (inactive); in the test on NCI/ADR-RES, 24.9 µM (inactive); in the test on PC-3, 20.6 µM (inactive); with RXF 393 it was 31.5 µM (inactive); with SF-539 it was 72.3 µM (inactive); in the test with SK-MEL-28 it was 28.8 µM (inactive). Also, the GI50 is 23.7 µM (inactive) in the test on SK-OV-3; 64.4 µM (inactive) in the test with SNB-19; 38.7 µM (inactive) with SW-620; 15.1 µM (inactive) in the test with T47D; 26.1 µM (inactive) in the test with U-251; 42.5 µM (inactive) in the test with UACC-257.
Take `COc1ccc(/N=N/C(=N\c2ccc(Cl)cc2)c2ccc(N(CCC#N)CCC#N)cc2)cc1`: the GI50 in the test with COLO 205 is 5.19 µM (inactive); with EKVX, 51.4 µM (inactive); with HOP-92, 33.2 µM (inactive); in the test with HT-29, > 100 µM (inactive); in the test with MCF7, 8.05 µM (inactive); with MDA-MB-231, 14.8 µM (inactive). Further, the GI50 is > 100 µM (inactive) in the test on NCI-H226; 40.9 µM (inactive) in the test with NCI-H23; 10.5 µM (inactive) in the test with NCI/ADR-RES; 25.5 µM (inactive) in the test with PC-3; 12.7 µM (inactive) in the test on RXF 393; > 100 µM (inactive) with SF-539. For the same molecule, the GI50 in the test on SK-MEL-28 is > 100 µM (inactive); in the test with SK-OV-3 it was > 100 µM (inactive); in the test with SNB-19, > 100 µM (inactive); with SW-620 it was 24.7 µM (inactive); with T47D it was 1.71 µM (inactive); in the test with U-251, 41.4 µM (inactive). The GI50 in the test on UACC-257 was 11.4 µM (inactive).
`CC[C@@]1(O)C(=O)OCc2c1cc1n(c2=O)Cc2c-1nc1ccccc1c2/C=N\NC(=O)CN`: the GI50 was 15.6 µM (inactive) in the test with COLO 205; 12 µM (inactive) in the test with EKVX; 1.15 µM (inactive) in the test with HOP-92; 1.68 µM (inactive) in the test with HT-29; 0.0989 µM (active) in the test on LOX IMVI; 0.0495 µM (active) with MCF7. The GI50 in the test with MDA-MB-231 is 23 µM (inactive); in the test on NCI-H226, 0.188 µM (active); in the test with NCI-H23 it was 0.0676 µM (active); with NCI/ADR-RES, 0.726 µM (active); with PC-3, 4.73 µM (inactive); in the test on RXF 393 it was 0.873 µM (active). Further, the GI50 in the test with SF-539 was 0.0258 µM (active); with SK-MEL-28 it was 23 µM (inactive); in the test with SNB-19 it was < 0.0397 µM (active); in the test on SW-620, 0.315 µM (active); with T47D it was 0.0486 µM (active); with U-251, 0.135 µM (active). In the test on UACC-257, the GI50 was 2.49 µM (inactive).
For `CN1CCN(c2ccc3[nH]c(-c4ccc5[nH]c(CCCc6ccc(N(CCCl)CCCl)cc6)nc5c4)nc3c2)CC1`, the GI50 with COLO 205 was > 100 µM (inactive); in the test on HOP-92 it was > 100 µM (inactive); with HT-29, 41.7 µM (inactive); in the test on LOX IMVI, 60.7 µM (inactive); in the test on MCF7, 64.3 µM (inactive); in the test with MDA-MB-231, > 100 µM (inactive). In addition, the GI50 in the test with NCI-H226, in the test with NCI-H23, in the test on NCI/ADR-RES, with PC-3, with RXF 393 and in the test with SF-539 was > 100 µM (inactive) throughout. In addition, the GI50 in the test on SK-MEL-28, with SK-OV-3, with SNB-19, with SW-620, in the test with T47D and with U-251 was > 100 µM (inactive) each time. In addition, in the test with UACC-257, the GI50 was > 100 µM (inactive).
Turning to `O=c1c2ncn(C3CC(O)C(CO)O3)c2nnn1Cc1ccccc1[N+](=O)[O-]` (stereo unspecified), the GI50 in the test on COLO 205 is > 100 µM (inactive); with EKVX, > 100 µM (inactive); with HOP-92 it was 57.8 µM (inactive); in the test with HT-29, > 100 µM (inactive); in the test with LOX IMVI, > 100 µM (inactive); with MCF7 it was > 100 µM (inactive). Also, the GI50 in the test on MDA-MB-231 was > 100 µM (inactive); in the test with NCI-H226, 43.6 µM (inactive); with NCI-H23, > 100 µM (inactive); with NCI/ADR-RES, > 100 µM (inactive); in the test with PC-3 it was > 100 µM (inactive); in the test on RXF 393, 17.8 µM (inactive). The GI50 in the test on SF-539, in the test on SK-MEL-28, with SK-OV-3, with SNB-19, with SW-620 and in the test with T47D was > 100 µM (inactive) throughout. For the same molecule, the GI50 in the test with U-251 and with UACC-257 was > 100 µM (inactive) throughout.
For `CCOC(=O)C(Cl)(Cl)/S(=N\S(=O)(=O)c1ccccc1)NC(=O)c1ccccc1` (stereo unspecified), the GI50 in the test on COLO 205, in the test with EKVX, in the test with HOP-92, with HT-29, in the test with LOX IMVI and with MCF7 was > 100 µM (inactive) in each case. Also, the GI50 in the test with MDA-MB-231, with NCI-H226, with NCI-H23, with NCI/ADR-RES, in the test with PC-3 and with RXF 393 was > 100 µM (inactive) each time. Further, the GI50 with SF-539, with SK-MEL-28, in the test with SK-OV-3, in the test with SNB-19, in the test with SW-620 and in the test on T47D was > 100 µM (inactive) in each case. Also, the GI50 with U-251 and with UACC-257 was > 100 µM (inactive) in each case.
Turning to `CC(C)CCCC(C)[C@H]1CC[C@H]2N/C(=N/c3ccccc3)CCC[C@]12C` (stereo partly specified), the GI50 is 1.3 µM (inactive) in the test with COLO 205; 2.97 µM (inactive) in the test with HOP-92; 0.501 µM (active) in the test on HT-29; 0.863 µM (active) in the test on LOX IMVI; 1.79 µM (inactive) in the test on MCF7; 1.14 µM (inactive) in the test with MDA-MB-231. The GI50 in the test on NCI-H226 is 1.86 µM (inactive); in the test with NCI-H23 it was 1.72 µM (inactive); in the test with NCI/ADR-RES, 1.68 µM (inactive); with PC-3 it was 2.97 µM (inactive); with RXF 393, 1.42 µM (inactive); in the test on SF-539, 1.61 µM (inactive). Further, the GI50 was 2.09 µM (inactive) in the test on SK-MEL-28; 2.03 µM (inactive) with SK-OV-3; 2.89 µM (inactive) in the test with SNB-19; 3.21 µM (inactive) in the test on SW-620; 3.09 µM (inactive) in the test with T47D; 1.82 µM (inactive) in the test on U-251. For the same molecule, the GI50 in the test on UACC-257 is 2.12 µM (inactive).
For the molecule `O=c1cc(-c2ccccc2)[nH]c2ccc(N3CCCC3)cc12`, the GI50 was 0.0196 µM (active) in the test on COLO 205; 0.037 µM (active) in the test on HOP-92; 0.0146 µM (active) with HT-29; < 0.0137 µM (active) with LOX IMVI; 4.58 µM (inactive) with MCF7; 0.103 µM (active) with MDA-MB-231. For the same molecule, the GI50 with NCI-H226 was 0.0266 µM (active); in the test on NCI-H23, 0.299 µM (active); in the test on NCI/ADR-RES it was 0.0159 µM (active); in the test with PC-3 it was 0.0282 µM (active); with RXF 393 it was 0.0196 µM (active); in the test with SF-539, 0.0123 µM (active). The GI50 in the test on SK-MEL-28 is 0.0533 µM (active); with SK-OV-3, 0.0466 µM (active); in the test on SNB-19 it was 0.0217 µM (active); in the test on SW-620 it was < 0.01 µM (active); in the test on T47D, > 100 µM (inactive); in the test on U-251 it was 0.0102 µM (active). Further, the GI50 in the test on UACC-257 is 30.4 µM (inactive).
`Cn1c(=O)c2[nH]c(N/N=C3/SCC(=O)N3Cc3ccccc3)nc2n(C)c1=O`: the GI50 with COLO 205 was > 100 µM (inactive); with EKVX, 42.1 µM (inactive); in the test on HOP-92 it was 15.7 µM (inactive); in the test on HT-29, 48.9 µM (inactive); in the test with MCF7, 19.4 µM (inactive); in the test with MDA-MB-231 it was 51.9 µM (inactive). The GI50 was > 100 µM (inactive) in the test with NCI-H226; 71.9 µM (inactive) in the test on NCI-H23; > 100 µM (inactive) in the test on NCI/ADR-RES; > 100 µM (inactive) in the test with PC-3; > 100 µM (inactive) in the test on RXF 393; 29.1 µM (inactive) in the test with SF-539. The GI50 in the test with SK-MEL-28 is > 100 µM (inactive); with SK-OV-3, 30.2 µM (inactive); with SNB-19, > 100 µM (inactive); in the test with T47D, 41.1 µM (inactive); in the test with U-251 it was 55.3 µM (inactive); in the test with UACC-257 it was > 100 µM (inactive).

Usually GI50 stands for the concentration that inhibits growth by half.
